The values that follow come from US12180193B2, “Accelerating fibrosarcoma protein degrading compounds and associated methods of use” (Arvinas Operations, Inc., priority 2020, dated 2024).

Bounds are passed on as bounds.

The target of one test is T1, BRAF V600E (Homo sapiens, UniProt P15056, V600E).
T1 construct: expressed in transfected cells
Kind of test: Cellular assay of target protein degradation, T-Rex 293 cells stably transfected with HA-BRAF_V600E (HA immunofluorescence, high content imaging). The test is classed as cell-based. Particulars: T-Rex 293 HA-BRAF V600E; for DC50: half maximal degradation, read-out: BRaf V600E DC50; for Dmax: maximum degradation observed. A digest of the protocol:
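Doxycycline-induced (1 ng/mL) T-Rex 293 cells expressing HA-BRAF V600E treated 24 h at 37 °C with compound at 1 μM to 0.1 nM final in 0.1% DMSO. Remaining HA-tagged protein quantified by fixed-cell anti-HA immunofluorescence and high-content imaging; DC50 and Dmax (% of control) derived.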

Another test addresses T2, BRAF G466V (Homo sapiens, UniProt P15056, G466V).
T2 construct: expressed in transfected cells
Kind of test: Cellular assay of target protein degradation, T-Rex 293 cells stably transfected with HA-BRAF G466V (HA immunofluorescence, high content imaging). The test is classed as cell-based. As to conditions: T-Rex 293 HA-BRAF G466V; for DC50: half maximal degradation, read-out: BRaf G466V DC50; for Dmax: maximum degradation observed. A digest of the protocol:
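Doxycycline-induced (0.75 ng/mL) cells treated 24 h at 37 °C with compound from 30 nM to 3 pM (0.1% DMSO). After fixation and permeabilisation, HA-tagged BRAF G466V immunostained and quantified by high-content imaging. DC50 and Dmax (percent of control) derived.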

T1 sequence (P15056 whole entry V600E): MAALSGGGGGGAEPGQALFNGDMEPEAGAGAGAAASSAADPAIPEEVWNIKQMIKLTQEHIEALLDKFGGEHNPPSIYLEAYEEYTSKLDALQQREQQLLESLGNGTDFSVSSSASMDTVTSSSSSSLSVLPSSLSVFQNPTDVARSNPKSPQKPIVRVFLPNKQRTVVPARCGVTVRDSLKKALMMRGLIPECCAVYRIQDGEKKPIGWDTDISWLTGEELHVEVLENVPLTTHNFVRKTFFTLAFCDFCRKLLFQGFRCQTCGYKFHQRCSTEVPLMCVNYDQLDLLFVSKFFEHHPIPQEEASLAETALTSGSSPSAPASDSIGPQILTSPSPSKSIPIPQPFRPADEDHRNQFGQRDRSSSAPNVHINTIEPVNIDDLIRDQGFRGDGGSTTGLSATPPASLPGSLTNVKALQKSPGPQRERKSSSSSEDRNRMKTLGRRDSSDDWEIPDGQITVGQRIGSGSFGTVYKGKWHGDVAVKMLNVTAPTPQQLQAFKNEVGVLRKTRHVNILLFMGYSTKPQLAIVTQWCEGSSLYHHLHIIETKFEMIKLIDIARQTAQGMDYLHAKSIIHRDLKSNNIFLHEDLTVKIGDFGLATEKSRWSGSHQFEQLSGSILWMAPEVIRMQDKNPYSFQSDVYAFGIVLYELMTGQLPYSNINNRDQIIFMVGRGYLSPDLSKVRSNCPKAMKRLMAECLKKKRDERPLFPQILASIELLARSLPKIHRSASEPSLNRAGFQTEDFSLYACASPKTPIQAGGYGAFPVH
T2 sequence (P15056 whole entry G466V): as the sequence (P15056 whole entry V600E) above, with G466V, E600V counted along it

In the case of `O=C1CC[C@@H](NC(=O)c2ccc(N3CC4(CN(CC5CCN(c6ccc(-c7cnc8[nH]cc(C(=O)c9c(F)ccc(NS(=O)(=O)N%10CC[C@@H](F)C%10)c9F)c8c7)cc6)CC5)C4)C3)cn2)C(=O)N1` [Compound 346, 5-(6-{[1-(4-{3-[2,6-difluoro-3-({[(3R)-3-fluoropyrrolidin-1-yl]sulfonyl}amino)benzoyl]-1H-pyrrolo[2,3-b]pyridin-5-yl}phenyl)piperidin-4-yl]methyl}-2,6-diazaspiro[3.3]heptan-2-yl)-N-[(3R)-2,6-dioxopiperidin-3-yl]pyridine-2-carboxamide], on BRAF V600E, the DC50 is 0.05 to 0.5 µM and the Dmax was under 35%. On BRAF G466V, the DC50 was 0.001 to 0.01 µM and the Dmax is under 35%.
Regarding `COc1cc(N2CC3(CN(CC4CCN(c5ccc(-c6cnc7[nH]cc(C(=O)c8c(F)ccc(NS(=O)(=O)N9CC[C@@H](F)C9)c8F)c7c6)cc5)CC4)C3)C2)cc(F)c1C(=O)N[C@H]1CCC(=O)NC1=O` [Compound 347, 4-(6-{[1-(4-{3-[2,6-difluoro-3-({[(3R)-3-fluoropyrrolidin-1-yl]sulfonyl}amino)benzoyl]-1H-pyrrolo[2,3-b]pyridin-5-yl}phenyl)piperidin-4-yl]methyl}-2,6-diazaspiro[3.3]heptan-2-yl)-N-[(3S)-2,6-dioxopiperidin-3-yl]-2-fluoro-6-methoxybenzamide], the half-maximal degradation concentration (DC50) at BRAF V600E lay within 0.005 to 0.05 µM; at BRAF G466V it was 0.001 to 0.01 µM. The figures for the Dmax at BRAF V600E and on BRAF G466V were 35 to 70% and over 70%, respectively.
On the same counts, the results for `COc1cc(N2CC3(CN(CC4CCN(c5ccc(-c6cnc7[nH]cc(C(=O)c8c(F)ccc(NS(=O)(=O)N9CC[C@@H](F)C9)c8F)c7c6)cc5)CC4)C3)C2)cc(F)c1C(=O)NC1CCC(=O)NC1=O` (stereo partly drawn) [Compound 348, 4-(6-{[1-(4-{3-[2,6-difluoro-3-({[(3R)-3-fluoropyrrolidin-1-yl]sulfonyl}amino)benzoyl]-1H-pyrrolo[2,3-b]pyridin-5-yl}phenyl)piperidin-4-yl]methyl}-2,6-diazaspiro[3.3]heptan-2-yl)-N-(2,6-dioxopiperidin-3-yl)-2-fluoro-6-methoxybenzamide] are 0.005 to 0.05 µM, 0.001 to 0.01 µM, 35 to 70% and over 70%.
For `O=C1CC[C@H](NC(=O)c2ccc(OCCCCN3CCN(c4ccc(-c5cnc6[nH]cc(C(=O)c7c(F)ccc(NS(=O)(=O)N8CC[C@@H](F)C8)c7F)c6c5)cc4)CC3)cc2F)C(=O)N1` [Compound 349, 4-{4-[4-(4-{3-[2,6-difluoro-3-({[(3R)-fluoropyrrolidin-1-yl]sulfonyl}amino)benzoyl]-1H-pyrrolo[2,3-b]pyridin-5-yl}phenyl)piperazin-1-yl]butoxy}-N-[(3S)-2,6-dioxopiperidin-3-yl]-2-fluorobenzamide], at BRAF V600E, the DC50 was over 0.5 µM and the Dmax was over 70%. For the same compound, on BRAF G466V, the DC50 is over 0.03 µM.
On the same counts, the results for `O=C1CCC(NC(=O)c2ccc(OCCCCN3CCN(c4ccc(-c5cnc6[nH]cc(C(=O)c7c(F)ccc(NS(=O)(=O)N8CC[C@@H](F)C8)c7F)c6c5)cc4)CC3)cc2F)C(=O)N1` (stereo partly drawn) [Compound 350, 4-{4-[4-(4-{3-[2,6-difluoro-3-({[(3R)-3-fluoropyrrolidin-1-yl]sulfonyl}amino)benzoyl]-1H-pyrrolo[2,3-b]pyridin-5-yl}phenyl)piperazin-1-yl]butoxy}-N-(2,6-dioxopiperidin-3-yl)-2-fluorobenzamide] are 0.05 to 0.5 µM, under 35% and over 0.03 µM.
For `O=C1CC[C@H](NC(=O)c2ccc(N3CC4(CN(CC5CCN(c6ccc(-c7cnc8[nH]cc(C(=O)c9c(F)ccc(NS(=O)(=O)N%10CCC(F)(F)C%10)c9F)c8c7)cc6)CC5)C4)C3)cc2F)C(=O)N1` [Compound 351, 4-{6-[(1-{4-[3-(3-{[(3,3-difluoropyrrolidin-1-yl)sulfonyl]amino}-2,6-difluorobenzoyl)-1H-pyrrolo[2,3-b]pyridin-5-yl]phenyl}piperidin-4-yl)methyl}-2,6-diazaspiro[3.3]heptan-2-yl}-N-[(3S)-2,6-dioxopiperidin-3-yl]-2-fluorobenzamide], on BRAF V600E, the DC50 is 0.005 to 0.05 µM and the Dmax lay within 35 to 70%. Besides, at BRAF G466V, the DC50 is 0.001 to 0.01 µM and the Dmax lay within 35 to 70%.
As for `COc1cc(N2CCC(CN3CC4(C3)CN(c3ccc(-c5cnc6[nH]cc(C(=O)c7c(F)ccc(NS(=O)(=O)N8CC[C@@H](F)C8)c7F)c6c5)cc3)C4)CC2)ccc1C(=O)N[C@H]1CCC(=O)NC1=O` [Compound 352, 4-(4-{[6-(4-{3-[2,6-difluoro-3-({[(3R)-3-fluoropyrrolidin-1-yl]sulfonyl}amino)benzoyl]-1H-pyrrolo[2,3-b]pyridin-5-yl}phenyl)-2,6-diazaspiro[3.3]heptan-2-yl]methyl}piperidin-1-yl)-N-[(3S)-2,6-dioxopiperidin-3-yl]-2-methoxybenzamide], at BRAF V600E, the DC50 was in the range of 0.005 to 0.05 µM and the Dmax lay in the range of 35 to 70%. For the same compound, at BRAF G466V, the DC50 fell in the range of 0.001 to 0.01 µM and the Dmax was over 70%.
In the same order, the values of `O=C1CC[C@H](NC(=O)c2ccc(N3CCC(CN4CC5(C4)CN(c4ccc(-c6cnc7[nH]cc(C(=O)c8c(F)ccc(NS(=O)(=O)N9CC[C@@H](F)C9)c8F)c7c6)cc4)C5)CC3)cn2)C(=O)N1` [Compound 353, 5-(4-{[6-(4-{3-[2,6-difluoro-3-({[(3R)-3-fluoropyrrolidin-1-yl]sulfonyl}amino)benzoyl]-1H-pyrrolo[2,3-b]pyridin-5-yl}phenyl)-2,6-diazaspiro[3.3]heptan-2-yl]methyl}piperidin-1-yl)-N-[(3S)-2,6-dioxopiperidin-3-yl]pyridine-2-carboxamide] are 0.005 to 0.05 µM, 35 to 70%, 0.001 to 0.01 µM and 35 to 70%.
In the same order, the values of `O=C1CCC(NC(=O)c2ccc(N3CCC(CN4CC5(C4)CN(c4ccc(-c6cnc7[nH]cc(C(=O)c8c(F)ccc(NS(=O)(=O)N9CC[C@@H](F)C9)c8F)c7c6)cc4)C5)CC3)cn2)C(=O)N1` (stereo partly drawn) [Compound 354, 5-(4-{[6-(4-{3-[2,6-difluoro-3-({[(3R)-3-fluoropyrrolidin-1-yl]sulfonyl}amino)benzoyl]-1H-pyrrolo[2,3-b]pyridin-5-yl}phenyl)-2,6-diazaspiro[3.3]heptan-2-yl]methyl}piperidin-1-yl)-N-(2,6-dioxopiperidin-3-yl)pyridine-2-carboxamide] are 0.005 to 0.05 µM, under 35%, 0.001 to 0.01 µM and under 35%.
As for `O=C1CC[C@H](NC(=O)c2ccc(CCCN3CC4(C3)CN(c3ccc(-c5cnc6[nH]cc(C(=O)c7c(F)ccc(NS(=O)(=O)N8CC[C@@H](F)C8)c7F)c6c5)cc3)C4)cc2F)C(=O)N1` [Compound 355, 4-{3-[6-(4-{3-[2,6-difluoro-3-({[(3R)-3-fluoropyrrolidin-1-yl]sulfonyl}amino)benzoyl]-1H-pyrrolo[2,3-b]pyridin-5-yl}phenyl)-2,6-diazaspiro[3.3]heptan-2-yl]propyl}-N-[(3S)-2,6-dioxopiperidin-3-yl]-2-fluorobenzamide], the DC50 on BRAF V600E was 0.05 to 0.5 µM; on BRAF G466V, over 0.03 µM. The compound also registered a Dmax at BRAF V600E of 35 to 70%.
On to `O=C1CCC(NC(=O)c2ccc(CCCN3CC4(C3)CN(c3ccc(-c5cnc6[nH]cc(C(=O)c7c(F)ccc(NS(=O)(=O)N8CC[C@@H](F)C8)c7F)c6c5)cc3)C4)cc2F)C(=O)N1` (stereo partly drawn) [Compound 356, 4-{3-[6-(4-{3-[2,6-difluoro-3-({[(3R)-3-fluoropyrrolidin-1-yl]sulfonyl}amino)benzoyl]-1H-pyrrolo[2,3-b]pyridin-5-yl}phenyl)-2,6-diazaspiro[3.3]heptan-2-yl]propyl}-N-(2,6-dioxopiperidin-3-yl)-2-fluorobenzamide], for which the DC50 on BRAF V600E was over 0.5 µM; on BRAF G466V, over 0.03 µM.
On to `COc1cc(N2CCC(CN3CCN(c4ccc(-c5cnc6[nH]cc(C(=O)c7c(F)ccc(NS(=O)(=O)N8CC[C@@H](F)C8)c7F)c6c5)cc4)CC3)CC2)ccc1C(=O)N[C@H]1CCC(=O)NC1=O` [Compound 357, 4-(4-{[4-(4-{3-[2,6-difluoro-3-({[(3R)-3-fluoropyrrolidin-1-yl]sulfonyl}amino)benzoyl]-1H-pyrrolo[2,3-b]pyridin-5-yl}phenyl)piperazin-1-yl]methyl}piperidin-1-yl)-N-[(3S)-2,6-dioxopiperidin-3-yl]-2-methoxybenzamide], for which, on BRAF V600E, the DC50 is 0.005 to 0.05 µM and the Dmax fell in the range of 35 to 70%. Moreover, on BRAF G466V, the DC50 lay in the range of 0.001 to 0.01 µM and the Dmax was over 70%.
In the same order, the values of `COc1cc(N2CCC(CN3CCN(c4ccc(-c5cnc6[nH]cc(C(=O)c7c(F)ccc(NS(=O)(=O)N8CC[C@@H](F)C8)c7F)c6c5)cc4)CC3)CC2)ccc1C(=O)NC1CCC(=O)NC1=O` (stereo partly drawn) [Compound 358, 4-(4-{[4-(4-{3-[2,6-difluoro-3-({[(3R)-3-fluoropyrrolidin-1-yl]sulfonyl}amino)benzoyl]-1H-pyrrolo[2,3-b]pyridin-5-yl}phenyl)piperazin-1-yl]methyl}piperidin-1-yl)-N-(2,6-dioxopiperidin-3-yl)-2-methoxybenzamide] are 0.005 to 0.05 µM, 35 to 70%, 0.001 to 0.01 µM and over 70%.
